Test results from patent publication US20080227732A1, “Treatment and Control of Severe Infections Including Cystic Fibrosis” (VENUS REMEDIES LIMITED, priority 2005, published 2008).

Experiments:
C. albicanus = assay: Bacterial susceptibility test, disc diffusion on Müeller-Hinton Agar; assay type: cell-based; settings: Concentration 2.18 g
Experimental: (§1) This test was performed by disc diffusion test for ceftazidime and tobramycin on Müeller-Hinton Agar medium purchased from Hi Media. The medium was prepared and used as per manufacturer's instructions. Ceftazidime alone, Tobramycin alone and the combination of Ceftazidime and Tobramycin, on different micro-organisms was taken. […] For each concentration the three zones were observed i.e for combination, Ceftazidime alone and Tobramycin alone and tested for efficacy against various types of micro-organisms.

MRSA = assay: as above; assay type: cell-based; settings: for zone of inhibition: Staphylococcus aureus, MRSA, Concentration 560 mg
Experimental: as §1

E. coli = assay: as above; assay type: cell-based; settings: for Zone size: Concentration 1.12 g; for zone of inhibition: Escherichia coli, Concentration 560 mg
Experimental: as §1

P. aurignosa = assay: as above; assay type: cell-based; settings: for zone of inhibition: Concentration 560 mg; for Zone size: Concentration 1.12 g
Experimental: as §1

Klebsiella = assay: as above; assay type: cell-based, Klebsiella pneumoniae; settings: Concentration 2.18 g
Experimental: as §1

Stapylococcus = assay: as above; assay type: cell-based, Staphylococcus (MSSA); settings: Concentration 2.18 g
Experimental: as §1

[1] = febrile children with neutropenia, 5 to 10 days of therapy; cited from earlier work
[2] = cited from earlier work
[3] = High: C 2.0, T 0.18, I 2.18 mg/ml
[4] = Highest: C 20.0, T 1.8, I 21.8 mg/ml
[5] = Low: C 0.2, T 0.018, I 0.218 mg/ml
[6] = Lowest: C 0.02, T 0.0018, I 0.0218 mg/ml
[7] = Concentration 1.12 g, High: C 1.0, T 0.12, I 1.12 mg/ml
[8] = Concentration 1.12 g, Highest: C 10.0, T 1.2, I 11.2 mg/ml
[9] = Concentration 1.12 g, Low: C 0.1, T 0.01, I 0.112 mg/ml
[10] = Concentration 1.12 g, Lowest: C 0.01, T 0.001, I 0.011 mg/ml
[11] = Concentration 2.18 g, High: C 2.0, T 0.18, I 2.18 mg/ml
[12] = Concentration 2.18 g, Highest: C 20.0, T 1.8, I 21.8 mg/ml
[13] = High: C 0.5, T 0.06, I 0.56 mg/ml
[14] = Highest: C 5.0, T 0.6, I 5.6 mg/ml
[15] = Lowest: C 0.005, T 0.0006, I 0.0056 mg/ml
[16] = High: C 1.0, T 0.12, I 1.12 mg/ml
[17] = Highest: C 10.0, T 1.2, I 11.2 mg/ml
[18] = Low: C 0.1, T 0.01, I 0.112 mg/ml
[19] = Lowest: C 0.01, T 0.001, I 0.011 mg/ml
[20] = Low: C 0.05, T 0.006, I 0.056 mg/ml

SMILES	Zone size (C. albicanus; [3]) [mm]	Zone size (C. albicanus; [4]) [mm]	Zone size (C. albicanus; [5]) [mm]	Zone size (C. albicanus; [6]) [mm]	Zone size (MRSA; [7]) [mm]	Zone size (MRSA; [8]) [mm]	Zone size (MRSA; [9]) [mm]	Zone size (MRSA; [10]) [mm]	Zone size (MRSA; [11]) [mm]	Zone size (MRSA; [12]) [mm]	zone of inhibition (MRSA; [13]) [mm]	zone of inhibition (MRSA; [14]) [mm]	zone of inhibition (MRSA; [15]) [mm]	Zone size (E. coli; [16]) [mm]	Zone size (E. coli; [17]) [mm]	Zone size (E. coli; [18]) [mm]	Zone size (E. coli; [19]) [mm]	zone of inhibition (E. coli; [13]) [mm]	zone of inhibition (E. coli; [14]) [mm]	zone of inhibition (E. coli; [20]) [mm]	also measured
CC(C)(O/N=C(\C(=O)N[C@@H]1C(=O)N2C(C(=O)[O-])=C(C[n+]3ccccc3)CS[C@H]12)c1csc(N)n1)C(=O)O [C, Ceftazidime]	31.25	37.55	18.37	12.90	12.53	22.39	0	0	27.32	44.93	12.9	21.2	0	42.10	47.34	35.49	33.34	42.1	47.3	35.5	zone of inhibition (E. coli; [15]): 33.3 mm; zone of inhibition (P. aurignosa; [13]): 36 mm; zone of inhibition (P. aurignosa; [14]): 41.8 mm; zone of inhibition (P. aurignosa; [20]): 24.5 mm; zone of inhibition (P. aurignosa; [15]): 14.4 mm; Zone size (P. aurignosa; [16]): 44.10 mm; Zone size (P. aurignosa; [17]): 48.34 mm; Zone size (P. aurignosa; [18]): 32.48 mm; Zone size (P. aurignosa; [19]): 29.34 mm; Zone size (Klebsiella; [3]): 47.47 mm; Zone size (Klebsiella; [4]): 51.22 mm; Zone size (Klebsiella; [5]): 46.30 mm; Zone size (Stapylococcus; [3]): 35.76 mm; Zone size (Stapylococcus; [4]): 50.93 mm; Zone size (Stapylococcus; [5]): 22.45 mm; patients clinically cured at the end of therapy [1]: 67%; overall response rate in septicaemia ([2]; cancer patients): 75%; overall response rate ([2]; episodes of infection in cancer patients): 60%
NC[C@H]1O[C@H](O[C@H]2[C@H](O)[C@@H](O[C@H]3O[C@H](CO)[C@@H](O)[C@H](N)[C@H]3O)[C@H](N)C[C@@H]2N)[C@H](N)C[C@@H]1O [T, Tobramycin]	26.45	35.47	15.65	0	22.45	33.22	10.24	9.89	14.61	17.13	23.9	32.4	9.46	25.02	30.30	22.16	14.35	25	30.3	22.2	zone of inhibition (MRSA; [20]): 11.7 mm; zone of inhibition (E. coli; [15]): 14.3 mm; zone of inhibition (P. aurignosa; [13]): 21.2 mm; zone of inhibition (P. aurignosa; [14]): 32.1 mm; zone of inhibition (P. aurignosa; [20]): 16.7 mm; zone of inhibition (P. aurignosa; [15]): 10.9 mm; Zone size (P. aurignosa; [16]): 23.02 mm; Zone size (P. aurignosa; [17]): 30.31 mm; Zone size (P. aurignosa; [18]): 19.16 mm; Zone size (P. aurignosa; [19]): 11.35 mm; Zone size (Klebsiella; [3]): 32.07 mm; Zone size (Klebsiella; [4]): 38.71 mm; Zone size (Klebsiella; [5]): 31.50 mm; Zone size (Stapylococcus; [3]): 27.49 mm; Zone size (Stapylococcus; [4]): 36.96 mm; Zone size (Stapylococcus; [5]): 16.68 mm
